Data on 4 compounds can be found in patent US10441555B2, “Pharmaceutical composition” (Olatec Therapeutics LLC, priority 2012, dated 2019).

Structures are written as SMILES. Counter-ions that a name gives are not always drawn.

In series [1] the test system is arachidonic acid-induced ear swelling. Briefly: topical arachidonic acid-induced ear swelling model in mice. The format is in vivo. The note with it: male ICR mice, topical application 30 min before and 15 min after arachidonic acid; measured at 60 minutes; test compounds 375 mM, indomethacin 14 mM; n=10. The method, then: The test compounds, indomethacin (positive control), and vehicle were evaluated for anti-inflammatory activity in a topical arachidonic acid-induced ear swelling model in mice. Male ICR mice weighing 22±2 g were used and randomly divided; each group had 10 mice. Arachidonic Acid (0.5 mg in 20 μl of acetone:ethanol/1:1) was applied topically to the anterior and posterior surfaces of the right ear of each mice. Test substances and vehicle, as listed in Table 1 were similarly applied 30 min before and 15 min after arachidonic acid application. The thickness of the right ear and the left ear was measured and the difference calculated as an indication of the inflammation in the right ear. Ear swelling was measured by a Dyer model micrometer gauge at 60 and 90 minutes after arachidonic acid application as an index of inflammation. Percent inhibition was calculated according to the formula: Ic−It/Ic×100, where Ic and It refers to increase of ear thickness (mm) in control and treated mice, respectively. ANOVA and Dunnett's test were employed to ascertain significant difference between vehicle control and treated groups. Significance is set at P<0.05 level.

One may read the melting point as the temperature of the solid-liquid transition. In turn, `CS(=O)(=O)CCCN` (as salt: hydrochloride) [3-(methylsulfonyl)propylamine] had a melting point of 146.9 to 147.4 °C. As to `CS(=O)(=O)CCC(N)=O` [3-(methylsulfonyl)propionamide], the “% Inhibition of ear swelling” value in series [1] was 30%. Turning to `CS(=O)(=O)CCCN` [3-(methylsulfonyl)propylamine], the “% Inhibition of ear swelling” value in series [1] is 42%. Consider `COc1ccc2c(c1)c(CC(=O)O)c(C)n2C(=O)c1ccc(Cl)cc1` [Indomethacin, indomethacin, reference compound], for which, in series [1], the “% Inhibition of ear swelling” value was 54%.
